Results reported in patent US11964973B2 (priority 2019, dated 2024).
pEC50, pIC50: −log10 of the molar value.

Assays:
[1] = molecular target: full length human DGKζ (Homo sapiens (Human), UniProt Q13574); assay: In vitro DGK inhibition assay, Method B (DGKζ LIPGLO, extruded liposomes); assay type: biochemical; details: liposome (LIPGLO) assay; read-out: DGKζ LIPGLO IC50
[2] = system: human venous whole blood, CD8 positive population (pERK); assay: DGK human whole blood pERK assay; assay type: cell-based; details: human whole blood, CD8 positive population
In short: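 Heparinized whole blood from healthy donors preincubated with compound 1 hour at 37° C. Stimulation used anti-CD3 at 1 μg/mL final plus cross-linking goat anti-mouse IgG for 15 minutes. Flow cytometry scored percentage pERK-positive cells among CD8-positive cells.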

[3] = molecular target: DGKα (Homo sapiens (Human), UniProt P23743); assay: biochemical; assay type: biochemical; details: liposome (LIPGLO) assay; read-out: DGKα LIPGLO IC50
Sequence of DGKα (P23743 whole entry, looked up): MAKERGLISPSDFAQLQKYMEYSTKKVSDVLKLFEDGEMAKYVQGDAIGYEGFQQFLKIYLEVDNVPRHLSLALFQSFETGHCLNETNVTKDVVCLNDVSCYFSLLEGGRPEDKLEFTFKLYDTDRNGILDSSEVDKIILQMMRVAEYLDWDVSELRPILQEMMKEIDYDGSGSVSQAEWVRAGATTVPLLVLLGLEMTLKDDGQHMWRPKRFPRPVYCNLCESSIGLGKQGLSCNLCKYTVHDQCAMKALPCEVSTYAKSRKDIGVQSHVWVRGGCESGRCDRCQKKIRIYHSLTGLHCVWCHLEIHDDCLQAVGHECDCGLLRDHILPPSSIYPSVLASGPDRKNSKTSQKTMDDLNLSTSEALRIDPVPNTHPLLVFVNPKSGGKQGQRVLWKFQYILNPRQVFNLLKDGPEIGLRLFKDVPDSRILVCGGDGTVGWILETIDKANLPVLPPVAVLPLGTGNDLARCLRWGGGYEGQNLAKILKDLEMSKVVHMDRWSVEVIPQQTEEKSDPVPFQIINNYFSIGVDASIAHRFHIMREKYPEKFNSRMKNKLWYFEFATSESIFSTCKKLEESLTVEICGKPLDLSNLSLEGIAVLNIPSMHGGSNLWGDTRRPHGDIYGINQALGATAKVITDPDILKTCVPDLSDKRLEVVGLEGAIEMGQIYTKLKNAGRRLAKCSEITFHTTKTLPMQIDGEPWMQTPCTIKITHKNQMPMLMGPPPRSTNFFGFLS

[4] = molecular target: human DGKζ (Homo sapiens (Human), UniProt Q13574); assay: biochemical; assay type: biochemical; details: liposome (LIPGLO) assay; read-out: DGKζ LIPGLO IC50
Sequence of human DGKζ (Q13574 whole entry, looked up): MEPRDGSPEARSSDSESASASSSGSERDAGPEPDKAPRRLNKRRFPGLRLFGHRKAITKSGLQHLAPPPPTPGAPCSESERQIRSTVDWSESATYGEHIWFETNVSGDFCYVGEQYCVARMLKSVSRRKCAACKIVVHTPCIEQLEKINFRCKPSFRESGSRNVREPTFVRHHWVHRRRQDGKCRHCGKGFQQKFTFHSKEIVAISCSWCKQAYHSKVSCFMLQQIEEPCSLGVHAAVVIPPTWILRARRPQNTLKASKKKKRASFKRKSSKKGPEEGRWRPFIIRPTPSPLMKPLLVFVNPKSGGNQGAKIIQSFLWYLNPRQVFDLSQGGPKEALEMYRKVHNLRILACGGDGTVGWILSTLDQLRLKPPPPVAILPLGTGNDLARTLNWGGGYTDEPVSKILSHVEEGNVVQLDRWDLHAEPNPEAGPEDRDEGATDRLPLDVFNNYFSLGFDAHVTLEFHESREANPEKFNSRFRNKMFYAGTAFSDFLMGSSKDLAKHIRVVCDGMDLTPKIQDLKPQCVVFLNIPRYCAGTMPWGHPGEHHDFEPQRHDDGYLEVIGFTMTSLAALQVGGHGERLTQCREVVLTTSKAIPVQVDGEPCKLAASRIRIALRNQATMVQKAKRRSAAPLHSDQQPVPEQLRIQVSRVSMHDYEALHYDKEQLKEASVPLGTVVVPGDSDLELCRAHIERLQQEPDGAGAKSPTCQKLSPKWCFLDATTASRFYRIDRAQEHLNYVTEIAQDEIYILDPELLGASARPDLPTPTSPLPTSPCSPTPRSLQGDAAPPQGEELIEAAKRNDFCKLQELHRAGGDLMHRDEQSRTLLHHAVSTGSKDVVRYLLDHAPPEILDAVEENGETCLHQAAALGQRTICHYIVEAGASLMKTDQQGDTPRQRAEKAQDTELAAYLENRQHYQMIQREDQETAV

[5] = system: naïve human CD8 T cells; assay: CellTiter-Glo CD8 T cell proliferation assay; assay type: cell-based; details: Homo sapiens, read-out: CD8 GLO Normalized EC50
In short: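 Thawed naïve human CD8 T cells (20 k/well) were stimulated with plate-bound anti-CD3 (0.1 μg/mL coating) and 0.5 μg/ml soluble anti-CD28, with compounds added right after plating. After 72 h at 37° C, proliferation was read by CellTiter-Glo luminescence. The signal from stimulated cells was taken as background.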

[6] = system: OT-1 CD8+ T cells with SIINFEKL-loaded MC38 tumor cells; assay: Murine cytotoxic T lymphocyte assay (IFN-γ); assay type: cell-based, mouse; details: Mus musculus, MC-38; murine cytotoxic T lymphocyte, IFN-γ; read-out: msCTL INFg IC50
Description: Assay 6: Murine Cytotoxic T Lymphocyte Assay
An antigen-specific cytolytic T-cell (CTL) assay was developed to evaluate functionally the ability of DGKα and DGKζ inhibitors to enhance effector T cell mediated tumor cell killing activity. CD8+ T-cells isolated from the OT-1 transgenic mouse recognize antigen presenting cells, MC38, that present the ovalbumin derived peptide […]. Recognition of the cognate antigen initiates the cytolytic activity of the OT-1 antigen-specific CD8+ T cells.
Functional CTL cells were generated as follows: OT-1 splenocytes from 8-12 week old mice were isolated and expanded in the presence of the […] peptide at 1 μg/mL and mIL2 at 10 U/mL. After three days, fresh media with […] was added. On day 5 of the expansion, the CD8+ T cells were isolated and ready for use. Activated CTL cells may be stored frozen for 6 months. Separately, one million MC38 tumor cells were pulsed with 1 μg/mL of […]-OVA peptide for 3 hours at 37° C. The cells were washed (3×) with fresh media to remove excess peptide. Finally, CTL cells that were pretreated with DGK inhibitors for 1 hour in a 96-well U bottom plate were combined with the antigen loaded MC38 tumor cells at a 1:10 ratio. The cells were then spun at 700 rpm for 5 min and placed in an incubator overnight at 37° C. After 24 hours, the supernatant was collected for analysis of IFN-γ cytokine levels by AlphaLisa purchased from Perkin Elmer.

[7] = system: Human venous whole blood (IFN-γ); assay: Human whole blood IFN-γ assay; assay type: cell-based; details: Homo sapiens, 24 h, human whole blood, anti-CD3 plus anti-CD28, 24 hours; read-out: INFg Whole Blood Normalized Agonist EC50
Protocol: Assay 10: Human Whole Blood IFN-γ Assay
Human venous whole blood (22.5 μL per well), obtained from healthy donors, was pre-treated with compounds for one hour at 37° C. in a humidified 95% air/5% CO2 incubator. The blood was stimulated with 2.5 μL anti-human CD3 and anti-CD28 mAb at a final concentration of 1 μg/mL each for 24 hours at 37° C. IFN-γ in the supernatants was measured using AlphLISA kit (Cat #AL217).

Sequence of full length human DGKζ (Q13574 whole entry, looked up): as above

| SMILES | pIC50 [1] | pEC50 ([2]; anti-CD3 stimulation, top concentration 20 μM, read-out: DGK HWB (human whole blood pERK)) | pIC50 [3] | pIC50 [4] | pEC50 [5] | pIC50 [6] | pEC50 [7] | pIC50 ([2]; read-out: DGK HWB pERK IC50) |
| --- | --- | --- | --- | --- | --- | --- | --- | --- |
| CCO[C@H]1CN(c2cc(=O)n(C)c3ccc(C#N)nc23)CC[C@@H]1Oc1ccc(OC(C)C)cn1 (relative stereo) [Example 398, trans-8-(4-((5-Isopropoxypyridin-2-yl)oxy)-3-ethoxypiperidin-1-yl)-5-methyl-6-oxo-5,6-dihydro-1,5-naphthyridine-2-carbonitrile] | 5.92 | 5.55 |  |  |  |  |  |  |
| Cn1c(=O)c(C#N)c(N2CCC(Oc3ccc(OC(F)(F)F)c(F)c3)CC2)c2nc(Cl)ccc21 [Example 17, 6-chloro-4-(4-(3-fluoro-4-(trifluoromethoxy)phenoxy)piperidin-1-yl)-1-methyl-2-oxo-1,2-dihydro-1,5-naphthyridine-3-carbonitrile] |  |  | 5.96 | 3.62 | 6.33 | 5.96 | 5.00 |  |
| Cn1c(=O)c([N+](=O)[O-])c(N2CCC(Oc3ccc(OC(F)(F)F)cc3)CC2)c2nc(C#N)ccc21 [Example 51, 5-methyl-7-nitro-6-oxo-8-(4-(4-(trifluoromethoxy)phenoxy)piperidin-1-yl)-5,6-dihydro-1,5-naphthyridine-2-carbonitrile] |  |  | 6.64 | 5.52 | 6.85 | 6.74 | 5.77 | 5.60 |
| Cn1c(=O)c(C#N)c(N2CCC(Oc3ccccc3C(F)(F)F)CC2)c2nc(Cl)ccc21 [Example 11, 6-chloro-1-methyl-2-oxo-4-(4-(2-(trifluoromethyl)phenoxy)piperidin-1-yl)-1,2-dihydro-1,5-naphthyridine-3-carbonitrile] |  |  | 4.92 | 3.82 | 5.00 | 6.08 | 5.00 |  |
| Cn1c(=O)c(C#N)c(N2CCC(Oc3cccc(OC(F)(F)F)c3)CC2)c2nc(Cl)ccc21 [Example 13, 6-chloro-1-methyl-2-oxo-4-(4-(3-(trifluoromethoxy)phenoxy)piperidin-1-yl)-1,2-dihydro-1,5-naphthyridine-3-carbonitrile] |  |  | 5.70 | 3.62 | 5.92 | 5.82 | 5.30 |  |
| CCO[C@H]1CN(c2nc(=O)n(C)c3ccc(C#N)nc23)CC[C@@H]1Oc1ccc(C(F)(F)F)cc1 [Example 405, 4-((3S,4S)-3-ethoxy-4-(4-(trifluoromethyl)phenoxy)piperidin-1-yl)-1-methyl-2-oxo-1,2-dihydropyrido[3,2-d]pyrimidine-6-carbonitrile] | 4.85 |  |  |  |  |  |  |  |
| Cc1cc(F)cc(OC2CCN(c3c([N+](=O)[O-])c(=O)n(C)c4ccc(F)cc34)CC2)c1 [Example 1, 6-fluoro-4-(4-(3-fluoro-5-methylphenoxy)piperidin-1-yl)-1-methyl-3-nitroquinolin-2(1H)-one] |  |  | 6.62 | 4.00 | 5.80 | 5.28 | 5.00 |  |
| Cn1c(=O)c([N+](=O)[O-])c(N2CCC(Oc3ccc(OC(F)(F)F)cc3)CC2)c2cc(F)ccc21 [Example 3, 6-fluoro-1-methyl-3-nitro-4-(4-(4-(trifluoromethoxy)phenoxy)piperidin-1-yl)quinolin-2(1H)-one] |  |  | 6.96 | 3.62 | 6.31 | 5.82 | 5.00 |  |
| COc1cccc(OC2CCN(c3c(C#N)c(=O)n(C)c4ccc(Cl)nc34)CC2)c1 [Example 10, 6-chloro-4-(4-(3-methoxyphenoxy)piperidin-1-yl)-1-methyl-2-oxo-1,2-dihydro-1,5-naphthyridine-3-carbonitrile] |  |  | 6.82 | 5.55 | 6.85 | 5.35 | 5.30 |  |
| COc1ccc(OC2CCN(c3c(C#N)c(=O)n(C)c4ccc(Cl)nc34)CC2)cc1 [Example 14, 6-chloro-4-(4-(4-methoxyphenoxy)piperidin-1-yl)-1-methyl-2-oxo-1,2-dihydro-1,5-naphthyridine-3-carbonitrile] |  |  | 6.60 | 4.89 | 6.55 | 6.08 | 5.15 |  |
